The test system of assay [1] is Escherichia coli. Kind of assay: microbe, parasite or virus in culture.
Assay [2] deals with Escherichia coli. Description: microbe, parasite or virus in culture. The source holds these as a separate data set.
In assay [3] the target is T1, High affinity choline transporter 1 (Homo sapiens, UniProt Q9GZV3).
T1 sequence (Q9GZV3 whole entry): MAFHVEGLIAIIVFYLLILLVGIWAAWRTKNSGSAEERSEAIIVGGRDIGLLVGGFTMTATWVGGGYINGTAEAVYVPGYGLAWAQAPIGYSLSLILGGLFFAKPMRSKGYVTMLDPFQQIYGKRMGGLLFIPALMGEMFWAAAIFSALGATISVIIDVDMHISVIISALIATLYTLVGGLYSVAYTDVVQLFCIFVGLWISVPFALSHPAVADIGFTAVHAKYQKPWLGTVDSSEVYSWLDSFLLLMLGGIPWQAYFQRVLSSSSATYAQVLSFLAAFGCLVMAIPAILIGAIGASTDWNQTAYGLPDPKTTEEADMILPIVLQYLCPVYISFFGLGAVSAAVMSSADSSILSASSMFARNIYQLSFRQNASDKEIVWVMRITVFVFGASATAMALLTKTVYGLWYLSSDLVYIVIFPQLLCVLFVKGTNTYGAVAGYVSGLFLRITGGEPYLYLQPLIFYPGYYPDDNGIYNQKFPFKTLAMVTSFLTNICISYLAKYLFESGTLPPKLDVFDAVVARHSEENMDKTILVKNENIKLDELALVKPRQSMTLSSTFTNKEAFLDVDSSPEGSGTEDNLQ
Description: CHT inhibitors, dose response, cell-based, 5-point CRC, membrane potential dye (AID 504840). Type of assay: functional.

Assay [4] concerns the target T1, High affinity choline transporter 1. Description: CHT inhibitors, dose response, cell-based, 10-point CRC, membrane potential dye (AID 588401).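 Note: membrane potential dye fluorescence of choline-evoked depolarization via CHT.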 It is filed as functional.
In assay [5] the target is Paired box protein Pax-8 (Homo sapiens, UniProt Q06710). Description: inhibitors of PAX8-driven TPO luciferase reporter, dose response, RMG-I cells, cherry-pick (AID 687027).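 Note: luciferase reporter driven by Pax8 target thyroperoxidase promoter measured by SteadyGlo luminescence.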 Type of assay: functional, cell-based.
Paired box protein Pax-8, sequence (Q06710 whole entry): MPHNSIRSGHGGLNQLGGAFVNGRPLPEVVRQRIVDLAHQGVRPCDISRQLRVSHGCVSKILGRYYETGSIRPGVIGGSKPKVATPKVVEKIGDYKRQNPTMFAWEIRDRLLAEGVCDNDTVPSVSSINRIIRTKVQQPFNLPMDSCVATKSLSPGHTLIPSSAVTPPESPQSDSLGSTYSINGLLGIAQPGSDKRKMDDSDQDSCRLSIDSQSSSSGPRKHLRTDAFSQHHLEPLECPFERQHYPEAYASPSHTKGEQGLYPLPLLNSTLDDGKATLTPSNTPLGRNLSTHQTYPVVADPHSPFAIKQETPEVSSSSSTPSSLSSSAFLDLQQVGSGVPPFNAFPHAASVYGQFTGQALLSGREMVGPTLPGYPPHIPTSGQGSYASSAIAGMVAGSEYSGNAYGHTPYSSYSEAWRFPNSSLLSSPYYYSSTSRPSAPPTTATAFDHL
Assay [6] deals with Cyclin-dependent kinase 19 (Homo sapiens, UniProt Q9BWU1). Description: Navigating the Kinome. Panel member name: CDC2L6. It is filed as functional.
Cyclin-dependent kinase 19, sequence (Q9BWU1 whole entry): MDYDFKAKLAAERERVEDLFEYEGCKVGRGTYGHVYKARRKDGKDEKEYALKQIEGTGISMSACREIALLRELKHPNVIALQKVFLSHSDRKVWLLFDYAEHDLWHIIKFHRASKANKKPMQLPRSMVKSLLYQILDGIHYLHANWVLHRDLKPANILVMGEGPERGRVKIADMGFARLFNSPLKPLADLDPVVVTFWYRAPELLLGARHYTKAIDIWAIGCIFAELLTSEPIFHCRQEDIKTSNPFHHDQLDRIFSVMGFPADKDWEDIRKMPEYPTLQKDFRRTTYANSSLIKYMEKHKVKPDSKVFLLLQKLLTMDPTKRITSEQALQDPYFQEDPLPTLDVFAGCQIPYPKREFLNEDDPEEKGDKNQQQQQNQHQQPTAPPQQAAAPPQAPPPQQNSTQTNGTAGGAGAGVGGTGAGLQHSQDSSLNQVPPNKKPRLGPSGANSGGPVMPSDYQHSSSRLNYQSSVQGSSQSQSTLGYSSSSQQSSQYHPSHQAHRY
The target of assay [7] is ALK tyrosine kinase receptor (Homo sapiens, UniProt Q9UM73). It is filed as functional.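 Note: ALK tested as one member of a kinase panel screen.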
ALK tyrosine kinase receptor, sequence (Q9UM73 whole entry): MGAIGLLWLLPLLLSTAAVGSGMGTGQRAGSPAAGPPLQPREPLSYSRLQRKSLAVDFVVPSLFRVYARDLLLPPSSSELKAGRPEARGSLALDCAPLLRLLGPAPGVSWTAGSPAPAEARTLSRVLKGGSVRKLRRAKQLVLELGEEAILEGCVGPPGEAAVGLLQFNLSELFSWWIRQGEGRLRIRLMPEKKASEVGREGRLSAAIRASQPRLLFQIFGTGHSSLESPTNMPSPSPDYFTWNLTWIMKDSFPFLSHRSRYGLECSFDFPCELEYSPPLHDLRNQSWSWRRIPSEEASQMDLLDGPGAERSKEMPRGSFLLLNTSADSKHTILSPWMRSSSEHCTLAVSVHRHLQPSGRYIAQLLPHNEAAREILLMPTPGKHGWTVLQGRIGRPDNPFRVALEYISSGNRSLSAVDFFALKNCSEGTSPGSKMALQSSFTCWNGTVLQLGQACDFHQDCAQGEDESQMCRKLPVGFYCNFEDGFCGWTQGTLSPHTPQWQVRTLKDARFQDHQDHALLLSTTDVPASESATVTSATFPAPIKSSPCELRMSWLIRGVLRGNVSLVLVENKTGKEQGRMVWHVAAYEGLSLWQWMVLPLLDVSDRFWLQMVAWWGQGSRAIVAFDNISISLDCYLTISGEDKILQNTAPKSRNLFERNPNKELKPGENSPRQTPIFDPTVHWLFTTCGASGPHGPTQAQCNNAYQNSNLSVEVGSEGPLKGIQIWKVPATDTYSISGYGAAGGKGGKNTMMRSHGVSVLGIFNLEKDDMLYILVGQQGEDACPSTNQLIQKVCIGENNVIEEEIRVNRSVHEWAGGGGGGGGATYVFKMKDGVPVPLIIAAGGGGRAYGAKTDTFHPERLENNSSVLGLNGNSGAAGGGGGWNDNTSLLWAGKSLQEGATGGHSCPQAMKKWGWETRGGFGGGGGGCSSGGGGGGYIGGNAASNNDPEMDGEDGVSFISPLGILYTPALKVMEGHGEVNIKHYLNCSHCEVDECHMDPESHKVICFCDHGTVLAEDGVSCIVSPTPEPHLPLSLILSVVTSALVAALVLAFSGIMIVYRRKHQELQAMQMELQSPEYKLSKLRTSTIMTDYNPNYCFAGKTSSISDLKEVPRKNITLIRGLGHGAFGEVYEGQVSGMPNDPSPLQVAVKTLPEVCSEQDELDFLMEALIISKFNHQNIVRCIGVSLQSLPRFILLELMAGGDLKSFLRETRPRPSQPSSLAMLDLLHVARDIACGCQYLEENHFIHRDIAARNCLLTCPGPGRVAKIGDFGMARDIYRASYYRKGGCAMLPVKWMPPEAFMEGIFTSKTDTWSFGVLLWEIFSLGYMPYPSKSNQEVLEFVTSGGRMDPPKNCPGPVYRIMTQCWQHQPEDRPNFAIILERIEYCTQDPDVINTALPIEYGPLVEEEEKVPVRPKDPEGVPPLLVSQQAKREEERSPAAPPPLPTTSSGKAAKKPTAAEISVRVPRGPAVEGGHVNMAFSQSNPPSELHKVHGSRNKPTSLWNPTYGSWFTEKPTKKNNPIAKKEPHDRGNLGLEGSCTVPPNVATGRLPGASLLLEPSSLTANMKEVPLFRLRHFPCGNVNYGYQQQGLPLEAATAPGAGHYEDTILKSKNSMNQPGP
In assay [8] the test system is Vero. Description: Vero cell cytotoxicity, cytotoxicity control for flavivirus capping enzyme inhibitors (AID 588742). Type of assay: functional. The conditions noted are these: Chlorocebus sabaeus.
Assay [9] deals with T2, Endoribonuclease toxin MazF (Escherichia coli K-12, UniProt P0AE70).
T2 sequence (P0AE70 whole entry): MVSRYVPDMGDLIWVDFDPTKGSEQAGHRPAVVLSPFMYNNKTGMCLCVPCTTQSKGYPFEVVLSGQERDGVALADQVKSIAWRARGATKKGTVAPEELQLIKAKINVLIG
Description: fluorescent RNA oligo signal without MazF, dose response, counter-screen for MazEF activator project, biochemical, fluorescence, single-stranded RNase substrate (AID 588502). Type of assay: functional.

In assay [10] the target is T2, Endoribonuclease toxin MazF. Description: MazF toxin RNase activators, dose response, biochemical, fluorescence, single-stranded RNA substrate, uHTS hits (AID 588481). Type of assay: functional.
Assay [11] concerns the target 5-hydroxytryptamine receptor 5A (Homo sapiens, UniProt P47898). Kind of assay: Counterscreen for agonists of OPRM1-OPRD1 heterodimerization: luminescence-based cell-based high throughput dose response assay to identify agonists of 5-hydroxytryptamine (serotonin) 5A receptor (HTR5A). [Related pubchem assays (depositor defined):AID504326, AID504355, AID504692, AID504904, AID504905]. Type of assay: functional.

Assay [12] has as its target T3, Short transient receptor potential channel 4 (Mus musculus, UniProt Q9QUQ5).
T3 sequence (Q9QUQ5 whole entry): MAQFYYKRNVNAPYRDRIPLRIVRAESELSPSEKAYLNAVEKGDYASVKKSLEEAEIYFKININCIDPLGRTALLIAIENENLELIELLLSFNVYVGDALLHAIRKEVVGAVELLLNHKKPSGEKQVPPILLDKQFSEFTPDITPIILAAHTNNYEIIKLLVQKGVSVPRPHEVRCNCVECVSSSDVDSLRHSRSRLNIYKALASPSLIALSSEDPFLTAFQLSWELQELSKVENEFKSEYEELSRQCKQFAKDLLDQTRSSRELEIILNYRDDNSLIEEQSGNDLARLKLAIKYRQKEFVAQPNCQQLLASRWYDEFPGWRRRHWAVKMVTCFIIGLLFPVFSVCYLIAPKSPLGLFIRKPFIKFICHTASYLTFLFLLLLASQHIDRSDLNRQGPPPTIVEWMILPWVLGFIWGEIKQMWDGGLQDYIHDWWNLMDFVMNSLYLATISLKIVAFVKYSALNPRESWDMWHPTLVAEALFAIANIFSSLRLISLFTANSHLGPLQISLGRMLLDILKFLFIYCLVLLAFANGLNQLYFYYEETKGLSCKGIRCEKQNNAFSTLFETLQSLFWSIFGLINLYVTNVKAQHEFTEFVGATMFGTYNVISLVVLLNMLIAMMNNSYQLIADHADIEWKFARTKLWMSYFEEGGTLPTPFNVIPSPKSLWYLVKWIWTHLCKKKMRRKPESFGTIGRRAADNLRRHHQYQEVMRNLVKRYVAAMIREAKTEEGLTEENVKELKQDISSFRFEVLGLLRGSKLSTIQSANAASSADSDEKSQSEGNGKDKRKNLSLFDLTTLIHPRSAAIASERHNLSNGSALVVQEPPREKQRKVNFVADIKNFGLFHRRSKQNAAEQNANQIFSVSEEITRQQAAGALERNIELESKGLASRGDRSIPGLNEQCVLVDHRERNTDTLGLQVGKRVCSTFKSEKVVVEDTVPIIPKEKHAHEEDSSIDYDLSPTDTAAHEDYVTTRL
Description: mouse TRPC4 channel activators, dose response, cell-based, HEK293 TRPC4/mu-opioid, Fluo-4 calcium (AID 434937). Type of assay: functional.

Assay [13] deals with Delta-type opioid receptor (Homo sapiens, UniProt P41143). Description: Counterscreen for agonists of heterodimerization of the mu 1 (OPRM1) and delta 1 (OPRD1) opioid receptors: Luminescence-based cell-based high throughput dose response assay to identify agonists of OPRD1 homodimerization. [Related pubchem assays (depositor defined):AID504326, AID504355, AID504692, AID504904, AID504905]. Type of assay: functional.
Delta-type opioid receptor, sequence (P41143 whole entry): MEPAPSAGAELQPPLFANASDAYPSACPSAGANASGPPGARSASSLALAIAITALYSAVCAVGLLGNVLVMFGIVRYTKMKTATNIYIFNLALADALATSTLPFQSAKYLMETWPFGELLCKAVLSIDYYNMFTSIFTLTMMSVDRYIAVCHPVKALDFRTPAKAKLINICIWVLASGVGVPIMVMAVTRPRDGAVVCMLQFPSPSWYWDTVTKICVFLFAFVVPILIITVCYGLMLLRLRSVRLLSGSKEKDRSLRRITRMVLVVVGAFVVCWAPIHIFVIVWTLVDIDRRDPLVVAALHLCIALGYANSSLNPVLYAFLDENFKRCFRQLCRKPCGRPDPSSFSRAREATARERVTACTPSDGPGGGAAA

The target of assay [14] is Mu-type opioid receptor (Homo sapiens, UniProt P35372). Description: Counterscreen for agonists of heterodimerization of the mu 1 (OPRM1) and delta 1 (OPRD1) opioid receptors: Luminescence-based cell-based high throughput dose response assay to identify agonists of OPRM1 homodimerization. Type of assay: functional.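 Note: U2OS cells expressing OPRM1 and beta-arrestin as split beta-galactosidase partners.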
Mu-type opioid receptor, sequence (P35372 whole entry): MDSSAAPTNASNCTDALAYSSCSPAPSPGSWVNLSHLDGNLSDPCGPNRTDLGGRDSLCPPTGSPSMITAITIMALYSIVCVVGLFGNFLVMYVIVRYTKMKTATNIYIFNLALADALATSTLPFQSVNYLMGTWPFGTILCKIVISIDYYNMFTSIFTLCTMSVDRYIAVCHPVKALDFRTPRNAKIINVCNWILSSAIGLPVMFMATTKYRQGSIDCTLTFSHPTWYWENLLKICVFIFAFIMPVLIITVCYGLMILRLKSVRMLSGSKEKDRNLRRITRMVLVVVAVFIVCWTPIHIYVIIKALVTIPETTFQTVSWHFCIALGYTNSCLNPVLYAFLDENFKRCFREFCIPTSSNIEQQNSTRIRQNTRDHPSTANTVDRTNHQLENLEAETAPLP
Assay [15] has as its system HEK293. Description: cytotoxicity in HEK293T NF-kB-Luc cells, SAR follow-up, cytotoxicity control for NF-kB activator project, cell-based, resazurin fluorescence (AID 493251). It is filed as functional. To be noted: Homo sapiens.

Structures are written as SMILES. Active and inactive are the calls of the source.

5-hydroxytryptamine receptor 5A, sequence (P47898 whole entry): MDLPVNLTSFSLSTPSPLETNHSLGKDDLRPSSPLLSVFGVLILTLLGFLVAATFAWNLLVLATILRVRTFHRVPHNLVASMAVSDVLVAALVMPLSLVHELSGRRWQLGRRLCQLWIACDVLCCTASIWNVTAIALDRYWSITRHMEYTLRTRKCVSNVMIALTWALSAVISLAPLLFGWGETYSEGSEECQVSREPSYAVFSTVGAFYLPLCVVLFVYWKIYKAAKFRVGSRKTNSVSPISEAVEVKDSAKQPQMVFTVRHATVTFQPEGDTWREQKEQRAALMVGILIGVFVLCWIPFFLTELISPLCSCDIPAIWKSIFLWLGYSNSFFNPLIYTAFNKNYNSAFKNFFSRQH

As for `C[C@H]1c2cccc(O)c2C(=O)C2C(=O)C3(O)C(=O)C(C(N)=O)C(=O)[C@@H](N(C)C)[C@@H]3[C@@H](O)[C@@H]21` (some centres undefined), the AC50 in assay [1] is 12.3 µM (active); in [2] it was 0.882 µM (active).

With `CC1CCCC(NC(=O)c2ccc(C/N=c3\c(N4CCCC4)c(O)c3=O)cc2)C1C` (centres undefined), the IC50 in assay [3] is 0.851 µM (active); in assay [4], 0.501 µM (active).

In the case of `CC(C)=CCC/C(C)=C/CNC(=O)C[C@H]1C[C@H](C(=O)N2CCOCC2)[C@@]2(C)c3[nH]c4ccc(Cl)cc4c3CCN2C1=O`, the results for the AC50 in assay [5] and in [2] were 11.8 µM (active) and 112 µM (active), respectively.

As for `CCOc1ccc(-c2nc3ccccn3c2-c2ccnc(Nc3cccc(CCN(C)C)c3)n2)cc1`, the Ki is 6.31 µM (active) in assay [6] and 0.316 µM (active) in [7].

Take `Cc1ccc(-c2cc(C(=O)NCc3ccco3)c3ccccc3n2)s1`: the CC50 in assay [8] is > 40 µM (active).

Turning to `CCOC(=O)C1=C(C)N(CC(C)C)C(=O)/C1=C\c1cccs1`, the EC50 in assay [9] and in [10] was > 99 µM (inactive) in each case.

With `N=C1CCCN1CC(=O)c1ccc(Br)cc1`, the IC50 is 6.07 µM (active) in assay [3] and 1.06 µM (active) in assay [4].

As for `CC(C)n1ncc2c(C(=O)N3CCN(Cc4ccc(Br)s4)CC3)cc(C3CC3)nc21`, in assay [2], the AC50 is 76 µM (active).

As to `COc1ccc2c(Cl)c(-c3nnc(SCC(=O)c4ccccc4)n3C)sc2c1`, the EC50 in [11] is > 92.5 µM (inactive); in [12] it was 0.668 µM (active); in assay [13], 26.5 µM (inactive); in assay [14], 10.3 µM (inactive).

For `O=C1/C(=C/c2ccc3c(c2)OCO3)SC(=S)N1CCC(=O)N(CCO)c1ccccc1`, the results for the EC50 in assay [9] and in assay [10] were 90.4 µM (inactive) and > 99 µM (inactive), respectively.

As to `COc1ccccc1/N=C/c1c(C)c(C#N)c2nc3ccccc3n2c1O`, the EC50 in [9] and in assay [10] was > 99 µM (inactive) in each case.

In the case of `O=C(Nc1ccc(S(=O)(=O)NCC2CCCO2)cc1)c1ccc(Cl)cc1[N+](=O)[O-]` (centres undefined), the IC50 in assay [3] is 7.39 µM (active); in assay [4] it was 4.47 µM (active).

Take `CN1C2C=C(N(CCc3ccccc3)C(=O)c3ccc(Cl)cc3)CC1CC2` (centres undefined): the EC50 in assay [11] was > 92.5 µM (inactive); in assay [12] it was 0.531 µM (active); in [13], > 92.5 µM (inactive); in [14], 67.3 µM (inactive).

As to `CCNC(=O)CCc1nc(-c2ccc(OCC)cc2)no1`, in [15], the IC50 was > 80 µM (inactive).
